Assay results as given in patent US20100120716.

Conditions: from C=CCCCCCC[C@@H](NC(=O)C1CC(OC(=O)N2Cc3ccccc3C2)CN1C(=O)N(C)CC=C)B1O[C@@H]2C[C@@H]3C[C@@H](C3(C)C)[C@]2(C)O1; rcm bond; Grubbs 2nd generation catalyst; toluene; 6.5 mM; 65.0 °C

Compound: CN1CC=CCCCCCC[C@H](B2O[C@@H]3C[C@@H]4C[C@@H](C4(C)C)[C@]3(C)O2)NC(=O)C2CC(OC(=O)N3Cc4ccccc4C3)CN2C1=O (stereo partly shown)
- ring closure, yield of all isomers: 40%
